# In patent US20220256900A1, “COMPOSITIONS WITH SUGAR LIKE CHARACTERISTICS” (CORN PRODUCTS DEVELOPMENT, INC., priority 2019, published 2022):
# Legend:
# Assay type in all cases: in vivo
# [1] = test system: 3 tasters; test: Taste profile of Test Compound Na Salt with sucralose in pH 3.0 buffer (Example 7)
# Description: The taste profile of the Test Compound Sweetener (Na Salt of the compound) was evaluated in combination with sweeteners—namely sucralose. These samples were evaluated in pH 3.0 buffer at 10 SE by 3 tasters. Samples were tasted in a blinded fashion using sip and spit methodology. The focus of the evaluation was to obtain an indication of the sweetness profile of the blends when compared to sucrose.
# Materials and Methods. Potassium sorbate was dissolved into water. The remaining ingredients were added and mixed until fully dissolved. The samples were tasted using sip and spit method. The samples were then compared to each other and the HFCS-55 sweetness equivalence target (10 SE).
# [2] = test system: 3 tasters; test: Taste profile of Test Compound Na Salt with Reb A in pH 3.0 buffer (Example 5)
# Description: (§1) The taste profile of the Test Compound Sweetener (Na Salt of the compound) was evaluated in combination with sweeteners—namely Rebaudioside A (Reb A). Enliten® 300000 (Reb A 95) was used in combination with the Test Compound. These samples were evaluated in pH 3.0 buffer by 3 tasters. Samples were tasted in a blinded fashion using sip and spit methodology. The focus of the evaluation was to obtain an indication of the sweetness profile of the blends when compared to sucrose. Materials and Methods. Potassium sorbate was dissolved into water. The remaining ingredients were added and mixed until fully dissolved. The pH of each sample was recorded and the samples tasted using sip and spit method. The samples were then compared to each other.
# [3] = test system: 3 tasters; test: Taste profile of Test Compound Na Salt with HFCS-55 in pH 3.0 buffer (Example 4); conditions: Test Compound (Na Salt) 1100 ppm
# Description: as §1, with “High Fructose Corn Syrup (HFCS-55).” for “Rebaudioside A (Reb A). Enliten® 300000 (Reb A 95) was used in combination with the Test Compound.”
# [4] = test system: trained descriptive analysis (DA) panel; test: Sensory evaluation of Test Compound/Reb M blends (sweetness quality and off-taste profile), 15 cm scale; conditions: in water solution
# [5] = test system: trained descriptive analysis (DA) panel; test: as above; conditions: RO water, samples target 10 Brix sucrose, 1000 ppm Test Comp, 600 ppm Reb M; for Bitter Aftertaste (1 min) / Sweet Aftertaste (1 min): 1 minute after expectoration; for Bitter Aftertaste (3 min) / Sweet Aftertaste (3 min): 3 minutes after expectoration; for Astringent / Bitter / Licorice / Metallic / Sweet AT (Appearance Time) / Sweet Intensity (ns) / Thickness: room temperature, LSD means
# Description: Sensory results for sweetener blends with Reb M were evaluated using a trained descriptive analysis (DA) panel. Five blend samples were tested in this panel; wherein each sample was designed to target a sweetness equivalence of 10 Brix Sucrose.
# Study Designs and Test Samples. A validated and trained panel of 10-12 descriptive analysis panelists participated in these experiments.
# During the test sessions, panelists rated the intensity of each attribute on a 15 cm scale. Five test samples were tested for each attribute, in triplicate. The order of samples was randomized and blinded using the Williams Latin Square design. All samples were prepared in reverse osmosis (RO) water and served at room temperature and evaluated using a sip and spit protocol.
# Each of the five samples were evaluated for sensory attributes corresponding to sweetness quality and off-taste profile. Attributes of sweetness intensity, sweetness appearance time, sweetness aftertaste and thickness were evaluated as part of the sweetness quality profiling. Specifically, for sweetness aftertaste two time points were evaluated; 1 minute and 3 minutes, after expectoration. The sweetness aftertaste corresponds to the sweetness linger characteristic, often common to high potency sweeteners.
# Off-Taste Profile. All 5 blend samples were also evaluated for attributes of bitter, astringent, metallic, licorice, and bitter aftertaste, as part of the off-taste profiling. Specifically, for bitter aftertaste two time points were evaluated; 1 minute and 3 minutes, after expectoration. When referring to ‘bitter’ tastes herein it refers to a sample that confers a bitter taste, activates or that can be detected by a bitter taste receptor and/or confers the perception of a bitter taste in a subject. Table 5 lists the LSD Means Differences for the off-taste evaluation across the 5 blend samples with Reb M.
# [6] = test system: trained descriptive analysis (DA) panel; test: Concentration-response testing of the Test Compound vs sucrose, sweetness intensity on gLMS; conditions: in water at room temperature; tested range 0% to 0.2% (2000 ppm)
# Description: A concentration-response (CR) testing of the Test Compound was conducted using a trained descriptive analysis (DA) panel to compare the Test Compound in an aqueous matrix to sucrose. The concentration-response curve for the natural sweetener (Test Compound) was determined using a general Labeled Magnitude Scale (gLMS). Trained panelists were asked to rate the sweetness intensity of eight (8) concentrations of sweetener and sucrose, in water at room temperature (RT). […] This relationship was established using a dose response model (Equation 2: R=Rmin+(C^Hillslope)*(Rmax−Rmin)/(C^HillSlope+EC50^HillSlope) for Sucrose and the Test Compound Sweetener. Study design and Test Samples: A trained panel of 10-12 descriptive analysis panelists participated in the experiment. All participants underwent training, during which panelists familiarized themselves with rating the sweetness intensity on the gLMS scale. The scale is depicted in FIG. 4 as a vertical line marked with anchors describing different intensities. The panelists were instructed to rate the perceived sweetness intensity for each sample by marking a line on the scale. The order of samples was randomized and blinded using the William's Latin Square design. The order of sample presentation within each sweetener set was also randomized. All samples were evaluated using a sip and spit protocol.
# [7] = 10 SE target, Test Compound Na Salt 1100 ppm, blend 550 ppm + 85 ppm Sucralose, Sucralose 170 ppm
Compound,Bitter Aftertaste (1 min) [5],Sweet Aftertaste (1 min) [5],Bitter Aftertaste (3 min) [5],Sweet Aftertaste (3 min) [5],Astringent [5],Bitter [5],Licorice [5],Metallic [5],Sweet AT (Appearance Time) [5],Sweet Intensity (ns) [5],Thickness [5],other results
"OC[C@H]1O[C@H](O[C@]2(CCl)O[C@H](CCl)[C@@H](O)[C@@H]2O)[C@H](O)[C@@H](O)[C@H]1Cl [Sucralose, sucralose]",–,–,–,–,–,–,–,–,–,–,–,"mouthfeel and aftertaste/linger [1, 7]: Significant aftertaste/linger; sweetness vs HFCS-55 target [1, 7]: less sweet than HFCS (LOSE) with a delayed sweetness"
"Cc1ccc2[nH]cc(C[C@@H](N)C(=O)O)c2c1 [Compound 5, (R)-2-amino-3-(5-methyl-1H-indol-3-yl)propanoic acid]",0.2,3.1,0.1,0.2,1.7,1.5,1.6,1.1,4.2,10.0,6.7,"adaptation ([2]; in combination with Reb A): helped reduce the adaptation commonly with Reb A; mouthfeel ([3]; blend 550 ppm + 6.49% HFCS-55): lower in mouthfeel; sweetness and taste ([3]; blend 550 ppm + 6.49% HFCS-55, HFCS-55 12.987%): fairly clean in taste and provides good upfront sweetness; adaptation ([1]; in combination with sucralose): helped reduce the adaptation commonly with sucralose; off-taste of the sweetener by itself [4]: minimal bitterness, astringency and bitter linger; concentration-response curve (sweetness intensity, gLMS) [6]: linear relationship"
"C=C1C[C@@]23CC[C@H]4[C@@](C)(CCC[C@@]4(C)C(=O)O[C@@H]4O[C@H](CO)[C@@H](O)[C@H](O)[C@H]4O)[C@@H]2CC[C@]1(O[C@@H]1O[C@H](CO)[C@@H](O)[C@H](O[C@@H]2O[C@H](CO)[C@@H](O)[C@H](O)[C@H]2O)[C@H]1O[C@@H]1O[C@H](CO)[C@@H](O)[C@H](O)[C@H]1O)C3 [Reb A, Rebaudioside A]",–,–,–,–,–,–,–,–,–,–,–,"sweetness and taste ([2]; 8SE target, Test Compound Na Salt 880 ppm, blend 440 ppm + 275 ppm Reb A, Reb A 550 ppm): much less sweet than 8SE; onset, decay and off notes ([2]; Test Compound Na Salt 880 ppm, blend 440 ppm + 275 ppm Reb A, Reb A 550 ppm): plastic/floral/metallic taste to it with a bitter and astringent linger"
"C=C1C[C@@]23CC[C@H]4[C@@](C)(CCC[C@@]4(C)C(=O)O[C@@H]4O[C@H](CO)[C@@H](O)[C@H](O[C@@H]5O[C@H](CO)[C@@H](O)[C@H](O)[C@H]5O)[C@H]4O[C@@H]4O[C@H](CO)[C@@H](O)[C@H](O)[C@H]4O)[C@@H]2CC[C@]1(O[C@@H]1O[C@H](CO)[C@@H](O)[C@H](O[C@@H]2O[C@H](CO)[C@@H](O)[C@H](O)[C@H]2O)[C@H]1O[C@@H]1O[C@H](CO)[C@@H](O)[C@H](O)[C@H]1O)C3 [Reb M, Rebaudioside M, reference compound]",1.6,5.1,0.9,1.8,3.1,4.0,3.4,1.7,6.8,10.0,3.5,–
